The results in this text go back to ChEMBL document CHEMBL5042504 (J Med Chem, 2022).

Data set [1] is described as follows: Oral bioavailability in CD-1 mouse at 20 mg/kg measured upto 24 hrs. It is filed as ADME, organism-based. The conditions noted are these: in vivo.
The nature of data set [2]: AUC (0 to infinity) in CD-1 mouse at 20 mg/kg, po measured upto 24 hrs. The conditions noted are these: in vivo. It is filed as ADME, organism-based. Further details: route oral, dose 20 mg/kg, time <=24.
Data set [3] is described as follows: Cmax in CD-1 mouse at 20 mg/kg, po measured upto 24 hrs. It is filed as ADME, organism-based. Further details: route oral, dose 20 mg/kg, time <=24. As to conditions: mouse, in vivo, 24 h.
Data set [4] addresses T1, Protein deacetylase HDAC6 (Homo sapiens, UniProt Q9UBN7).
T1 sequence (Q9UBN7 whole entry): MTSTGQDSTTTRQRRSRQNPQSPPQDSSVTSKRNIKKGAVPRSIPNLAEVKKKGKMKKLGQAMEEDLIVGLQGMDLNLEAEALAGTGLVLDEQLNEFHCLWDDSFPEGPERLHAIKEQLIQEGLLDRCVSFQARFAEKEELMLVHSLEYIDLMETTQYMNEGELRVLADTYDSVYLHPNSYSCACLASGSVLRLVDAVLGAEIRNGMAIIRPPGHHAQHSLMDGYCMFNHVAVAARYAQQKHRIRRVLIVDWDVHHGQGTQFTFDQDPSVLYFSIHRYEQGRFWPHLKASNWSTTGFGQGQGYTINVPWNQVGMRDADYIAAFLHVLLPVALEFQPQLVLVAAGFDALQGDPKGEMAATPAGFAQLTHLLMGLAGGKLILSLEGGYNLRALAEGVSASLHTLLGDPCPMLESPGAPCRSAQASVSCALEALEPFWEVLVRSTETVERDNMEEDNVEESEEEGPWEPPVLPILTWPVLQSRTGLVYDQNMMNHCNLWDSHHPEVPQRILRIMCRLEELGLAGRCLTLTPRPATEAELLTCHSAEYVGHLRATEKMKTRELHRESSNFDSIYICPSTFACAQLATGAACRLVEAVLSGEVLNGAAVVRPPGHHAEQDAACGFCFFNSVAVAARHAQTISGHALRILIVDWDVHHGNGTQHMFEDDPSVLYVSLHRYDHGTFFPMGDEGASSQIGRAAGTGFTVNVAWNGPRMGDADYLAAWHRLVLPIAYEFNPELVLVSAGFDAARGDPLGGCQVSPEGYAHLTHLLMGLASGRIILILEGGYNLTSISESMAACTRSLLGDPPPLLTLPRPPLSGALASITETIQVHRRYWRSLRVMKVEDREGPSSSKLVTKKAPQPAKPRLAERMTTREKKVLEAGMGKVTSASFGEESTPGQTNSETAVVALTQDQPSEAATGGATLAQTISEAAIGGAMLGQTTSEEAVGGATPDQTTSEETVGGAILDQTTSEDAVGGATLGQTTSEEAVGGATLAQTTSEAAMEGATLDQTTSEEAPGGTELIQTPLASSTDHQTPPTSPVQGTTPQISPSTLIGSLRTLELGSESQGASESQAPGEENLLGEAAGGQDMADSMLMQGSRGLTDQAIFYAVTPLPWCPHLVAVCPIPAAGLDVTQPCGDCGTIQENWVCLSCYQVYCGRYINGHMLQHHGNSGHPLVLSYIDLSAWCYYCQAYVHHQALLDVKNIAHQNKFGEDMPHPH
Put plainly: Inhibition of human recombinant HDAC6 using Boc-Lys(acetyl)-AMC substrate incubated for 2 hrs by fluorescence based assay.

Data set [5] can be described thus: Drug uptake in BALB/c mouse xenografted with human AML MV4-11 cells assessed as tumor tissue at 4 mg/kg ip measured after 0.5 to 6 hrs by LC-MS/MS. It is filed as ADME, organism-based. The conditions noted are these: in vivo, time 0.5-6 hrs.
Data set [6] can be described thus: Drug distribution in BALB/c mouse heart measured at 4 mg/kg, po or ip after 2 to 8 hrs after 0.5 hrs. It is filed as ADME, organism-based. The conditions noted are these: in vivo, time 2-8 hrs.
A short description of data set [7]: Drug distribution in BALB/c mouse liver measured at 4 mg/kg, po or ip after 2 to 8 hrs after 0.5 hrs. It is filed as ADME, organism-based. As to conditions: in vivo, time 2-8 hrs.
Data set [8] can be described thus: Drug distribution in BALB/c mouse kidney measured at 4 mg/kg, po or ip after 0.5 hrs after 0.5 hrs. As to conditions: in vivo. It is filed as ADME, organism-based.
Data set [9] in a line: Drug distribution in tumor of BALB/c mouse xenografted with human MV4-11 cells assessed as measured after 2 hrs. It is filed as ADME. The conditions noted are these: read-out: Ct.
The nature of data set [10]: Drug distribution in BALB/c mouse kidney measured at 4 mg/kg, po or ip after 2 to 8 hrs after 0.5 hrs. It is filed as ADME, organism-based. As to conditions: in vivo, time 2-8 hrs.
A short description of data set [11]: Drug distribution in tumor of BALB/c mouse xenografted with human MV4-11 cells assessed as measured after 8 hrs. It is filed as ADME. As to conditions: read-out: Ct. In general terms: In xenograft studies the graft and the host belong to different species.
Data set [12] can be described thus: Drug distribution in BALB/c mouse lung measured at 4 mg/kg, po or ip after 0.5 hrs after 0.5 hrs. It is filed as ADME, organism-based. The conditions noted are these: in vivo.
Data set [13] concerns MV4-11. Description: Antitumor activity against human MV4-11 cells xenografted in BALB/c mouse assessed as tumor growth inhibition at 4 mg/kg, po administered for 24 days. The format is functional, organism-based. As to conditions: time 24.0 day.
Data set [14] is described as follows: Plasma concentration in BALB/c mouse xenografted with human AML MV4-11 cells at 4 mg/kg, po. As to conditions: in vivo. The format is ADME, organism-based.
Data set [15] is described as follows: Drug distribution in BALB/c mouse gut measured at 4 mg/kg, po or ip after 0.5 hrs after 0.5 hrs. The format is ADME, organism-based. The conditions noted are these: in vivo.
Data set [16] can be described thus: Plasma concentration in BALB/c mouse xenografted with human AML MV4-11 cells at 4 mg/kg, ip. The format is ADME, organism-based. As to conditions: in vivo.
A short description of data set [17]: Drug distribution in BALB/c mouse brain measured at 4 mg/kg, po or ip after 2 to 8 hrs after 0.5 hrs. The format is ADME, organism-based. As to conditions: in vivo, time 2-8 hrs.
Data set [18] relates to MV4-11. Description: Antitumor activity against human MV4-11 cells xenografted in BALB/c mouse assessed as tumor growth inhibition at 2 to 4 mg/kg, po administered for 24 days. The format is functional. As to conditions: dose 2-4 mg/kg, time 24.0 day.
A short description of data set [19]: Drug uptake in BALB/c mouse xenografted with human AML MV4-11 cells assessed as tumor tissue at 4mg/kg, po measured after 0.5 to 6 hrs by LC-MS/MS. It is filed as ADME, organism-based. As to conditions: in vivo, time 0.5-6 hrs.
Data set [20] in a line: Drug distribution in BALB/c mouse lung measured at 4 mg/kg, po or ip after 2 to 8 hrs after 0.5 hrs. The format is ADME, organism-based. The conditions noted are these: in vivo, time 2-8 hrs.
Data set [21] is described as follows: Drug distribution in tumor of BALB/c mouse xenografted with human MV4-11 cells assessed as measured after 0.5 hrs. It is filed as ADME. As to conditions: read-out: Ct.
A short description of data set [22]: Drug distribution in BALB/c mouse heart measured at 4 mg/kg, po or ip after 0.5 hrs after 0.5 hrs. The format is ADME, organism-based. As to conditions: in vivo.
Data set [23] can be described thus: Drug distribution in BALB/c mouse spleen measured at 4 mg/kg, po or ip after 2 to 8 hrs after 0.5 hrs. It is filed as ADME, organism-based. The conditions noted are these: in vivo, time 2-8 hrs.
Data set [24] can be described thus: Drug distribution in BALB/c mouse gut measured at 4 mg/kg, po or ip after 2 to 8 hrs after 0.5 hrs. The format is ADME, organism-based. The conditions noted are these: in vivo, time 2-8 hrs.
Data set [25] is described as follows: Drug distribution in BALB/c mouse brain measured at 4 mg/kg, po or ip after 0.5 hrs after 0.5 hrs. It is filed as ADME, organism-based. The conditions noted are these: in vivo.
The nature of data set [26]: Drug distribution in BALB/c mouse spleen measured at 4 mg/kg, po or ip after 0.5 hrs. The conditions noted are these: in vivo. It is filed as ADME, organism-based.
Data set [27] concerns MV4-11. Put plainly: Antitumor activity against human MV4-11 cells xenografted in BALB/c mouse assessed as tumor growth inhibition at 4 mg/kg, ip administered for 24 days. The format is functional, organism-based. As to conditions: time 24.0 day.
Data set [28] is described as follows: Drug distribution in BALB/c mouse liver measured at 4 mg/kg, po or ip after 0.5 hrs after 0.5 hrs. The format is ADME, organism-based. The conditions noted are these: in vivo.

Structures are written as SMILES. Calls of active or inactive are those of the source. The calls are words filed in the database; no cut-off is given here.

On to `CCCNNC(=O)/C=C/c1ccc(CNCCc2c(C)[nH]c3ccccc23)cc1`, for which the F in data set [1] is 19.8%. The AUC (in general, the area under the concentration-time curve, a measure of exposure) in [2] was determined as 265 ng·h/mL. Moreover, the Cmax (commonly the peak of the concentration-time curve) in data set [3] came to 45.1 ng/mL. Besides, the IC50 (as a rule, the point on the concentration scale where inhibition reaches its midpoint) in [4] is > 10 µM.

Turning to `Cc1[nH]c2ccccc2c1CCNCc1ccc(/C=C/C(=O)NO)cc1` [PANOBINOSTAT], the Drug uptake result in [5], in data set [6], in [7], in [8], in data set [10] and in data set [12] was “Active” each time. Moreover, the Drug uptake result in data set [14], in [15], in data set [16], in [17], in [19] and in [20] was “Active” in each case. The Drug uptake entry in data set [22], in data set [23], in [24], in data set [25], in data set [26] and in data set [28] was “Active” each time. Also, in [9], the concentration at 2 h stood at 151 ng/g. In addition, the concentration at 8 h in data set [11] was 108 ng/g. Moreover, the result in data set [13] and in data set [27] was Active. Besides, the TGI entry in data set [18] is “inactive”. Besides, the concentration at 0.5 h in data set [21] came out at 82.4 ng/g.
